Legend:
[1] = Particle size by air-jet sieve (ALPIN JET SIEVE); assay type: physicochemical; conditions: for particle size fraction 100 μm to 250 μm: desired profile 20 to 50%; for particle size fraction 80 μm to 100 μm: desired profile 40 to 60%; for particle size fraction larger than 500 μm: desired profile ≤ 0.5%; for particle size fraction 250 μm to 500 μm: desired profile ≤ 5%
Source text: The air-Jet sieve method used according to the invention to define the particle size of the 5-ISMN is a technique widely used by those skilled in the art on account of its great sensitivity and reliability, and is consequently very familiar to them. The operating conditions employed in the context of the invention will be clarified in greater detail below.
Characterization of the particle size of the 5-ISMN used according to the invention by the air-jet sieve, type ALPIN JET SIEVE, method
350 g (sic) partial air vacuum,
time 4 min from 80 to 100 μm, then 3 mm (sic) from 250 to 500 μm.
Under these conditions, three batches of 5-ISMN, A, B and C, were tested.

[2] = Physical properties of 5-ISMN (static electricity, flowability, sublimation, solubility); assay type: physicochemical; conditions: well-defined particle size fraction of 5-ISMN powder
[3] = In vivo absorption profile
[4] = cited from earlier work
[5] = plasma; recorded value; cited from earlier work
[6] = Kinetics of release of the active principle in vitro as a function of pH; assay type: physicochemical; conditions: tablet according to the invention
Protocol: This study was carried out at pH values of 1.5, 4.25 and 7.2 and variable values.

[7] = Kinetics of release in vitro (rotating paddle dissolution); assay type: physicochemical; conditions: composition according to the invention, 100 rpm/900 ml of water
Protocol: The study of the changes in the percentage of 5-ISMN dissolved was performed as a function of time. This test was carried out using a rotating paddle apparatus (100 rpm/900 ml of water).

SMILES	particle size fraction 100 μm to 250 μm [1] [%]	particle size fraction 80 μm to 100 μm [1] [%]	particle size fraction larger than 500 μm [1] [%]	particle size fraction 250 μm to 500 μm [1] [%]	electrostatic phenomena [2]	flowability and compressibility [2]	tendency to sublime [2]	constant mean flux of in vivo absorption ([3]; calculated from mean curve of percentages of 5-ISMN absorbed) [% h^-1]	absorption profile ([3]; mean curve for the percentages of 5-ISMN absorbed)	sublimation ([4]; 60° C., 75% relative humidity)	flowability ([4]; static electricity phenomenon, dry mixing)	solubility in water and buffer solutions ([4]; water and buffer solutions)	minimal effective concentration (Ceff) [5] [ng/mL]	kinetic profiles of release at constant pH ([6]; pH 1.5, 4.25 and 7.2)	dissolution profile obtained at variable pH ([6]; variable pH)	% dissolved at 0.25 hour ([7]; 0.25 hour)	% dissolved at 1 hour ([7]; 1 hour)	% dissolved at 4 hours ([7]; 4 hours)	% dissolved at 8 hours ([7]; 8 hours) [%]
O=[N+]([O-])O[C@@H]1CO[C@H]2[C@@H]1OC[C@@H]2O [C, isosorbide 5-mononitrate]	34.85	49.2	0.0	0.0															
O=[N+]([O-])O[C@@H]1CO[C@H]2[C@@H]1OC[C@@H]2O [B, isosorbide 5-mononitrate]	34.4	48.2	0.0	0.9															
O=[N+]([O-])O[C@@H]1CO[C@H]2[C@@H]1OC[C@@H]2O [5-ISMN, isosorbide 5-mononitrate]					low level of electrostatic phenomena	qualities of flowability and compressibility	far less marked tendency to sublime	~13.37	zero order entry up to approximately the fifth hour following administration	sublimation phenomenon	virtually zero flowability	very high solubility	100	do not differ significantly from one another	pH-independent mode of release	5% to 20%	20% to 40%	60% to 80%	≥ 80
O=[N+]([O-])O[C@@H]1CO[C@H]2[C@@H]1OC[C@@H]2O [A, isosorbide 5-mononitrate]	26	47.5	0.0	0.0															

From patent publication US5334393A, “Sustained-release tablet based on isosorbide 5-mononitrate and process for preparing it” (Pierre Fabre Medicament, priority 1990, dated 1994)
